Source: patent US8697641B2, “4-amino-4-oxobutanoyl peptide cyclic analogues, inhibitors of viral replication” (Achillion Pharmaceuticals, Inc., priority 2008, dated 2014)

system: Hepatitis C replicon; test: HCV replicon assay (NPT ELISA readout) in Huh-7 replicon-containing cells; format: cell-based, Hepatitis C virus; conditions: HCV replicon in Huh-7 cells, three days incubation
Protocol: Compounds claimed herein are tested for the ability to inhibit viral replication of the Hepatitis C replicon in cultured cells in which the HCV replicon construct has been incorporated. The HCV replicon system was described by Bartenschlager, et. al (Science, 285, pp. 110-113 (1999)). The replicon system is predictive of in vivo anti-HCV activity; compounds that are active in humans uniformly evidence activity in the replicon assay.
In this assay HCV replicon containing cells are treated with different concentrations of the test compound to ascertain the ability of the test compound to suppress replication of the HCV replicon. As a positive control, HCV replicon-containing cells are treated with different concentrations of interferon alpha, a known inhibitor of HCV replication. The replicon assay system includes Neomycin Phosphotransferase (NPT) as a component of the replicon itself in order to detect the transcription of replicon gene products in the host cell. Cells in which the HCV replicon is actively replicating have high levels of NPT; the level of NPT is proportional to HCV replication. […] The NPT level of each sample is measured using a captured ELISA.
A protocol for testing compounds for the ability to inhibit viral replication of the Hepatitis C replicon cultured cells in which the replicon construct has been incorporated, follows.
The HCV replicon contains, 5′-3′, the HCV-IRES, the neomycin phosphotransferase (neo) gene, the IRES of encephalomyocarditis virus, which directs translation of HCV sequences NS3 to NS5B, and the 3′-NTR. The sequence of the HCV replicon has been deposited in GenBank (Accession no. AJ242652).
The replicon is transfected into Huh-7 cells using standard methods such as electroporation.
The equipment and materials include, but are not limited to, Huh-7 HCV replicon-containing cells, maintenance media (DMEM (Dulbecco's modified Eagle media) supplemented with 10% FBS, L-glutamine, non-essential amino acids, penicillin (100 units/ml), streptomycin (100 micrograms/ml), and 500 micrograms/ml of Geneticin (G418), screening media (DMEM supplemented with 10% FBS, L-glutamine, non-essential amino acids, penicillin (100 units/ml) and streptomycin (100 micrograms/ml)), 96 well tissue culture plates (flat bottom), 96 well plates (U bottom for drug dilution), Interferon alpha for positive control, fixation reagent (such as methanol:acetone), primary antibody (rabbit anti-NPTII), secondary antibody: Eu-N1 l, and enhancement solution.
The cells are then seeded onto 96-well plates at a density of 6000-7500 cells/100 microliters/well (6-7.5×10^5 cells/10 ml/plate). The plates are then incubated at 37° C. in a 5% CO2 incubator.
HCV replicon-containing cells are rinsed with once PBS once; 2 mls of trypsin are then added. Cells are incubated at 37° C. in a 5% CO2 incubator for 3-5 minutes. 10 mls of complete medium is added to stop the reaction. Cells are blown gently, put into a 15 ml tube, and spun at 1200 rpm for four minutes. The trypsin/medium solution is removed and 5 mls of medium (500 ml DMEM (high glucose)) from BRL catalog #12430-054; 50 mls 10% FBS, 5% Geneticin G418 (50 mg/ml, BRL catalog #10131-035), 5 ml MEM non-essential amino acids (100×BRL #11140-050) and 5 ml pen-strep (BRL #15140-148) is added. The cells and media are mixed carefully
Cells are plated with screening medium (500 ml DMEM (BRL #21063-029), 50 ml FBS (BRL #10082-147) and 5 ml MEM non-essential amino acid (BRL #11140-050) at 6000-7500 fcells/100 μl/well of 96 well plate (6-7.5×10^5 cells/10 ml/plate). Plates are placed into 37° C. 5% CO2 incubator overnight.
The following morning, drugs (test compounds or interferon alpha) are diluted in 96 well U bottom plates with media or DMSO/media, depending on the final concentration chosen for screening. Generally for 6 concentrations of each test compounds ranging from 10 micromolar to 0.03 micromolar are applied. […]

**Q.** For `COc1ccc2c(O[C@@H]3C[C@H]4C(=O)N[C@]5(C(=O)NS(=O)(=O)C6CC6)C[C@H]5CCCCCCC[C@H](CC(=O)N5CCCCC5)C(=O)N4C3)cc(-c3ccccc3)nc2c1` [Compound 51, (2R,6R,13aR, 14aR,16aS)-N-(cyclopropylsulfonyl)-2-(7-methoxy-2-phenylquinolin-4-yloxy)-5,16-dioxo-6-(2-oxo-2-(piperidin-1-yl)ethyl) octadecahydrocyclopropa [e]pyrrolo[1,2-a][1,4] diazacyclopentadecine-14a-carboxamide], which EC50 is on record?
**A.** Its EC50 is < 1000 nM.

**Q.** With `COc1ccc2c(O[C@@H]3C[C@H]4C(=O)N[C@H](C(=O)NS(=O)(=O)C5CC5)CCCCCCCCC[C@H](CC(=O)N5CCCCC5)C(=O)N4C3)cc(-c3ccccc3)nc2c1` [Compound 52, (3S,13R,17R,18aS)-N-(cyclopropylsulfonyl)-17-(7-methoxy-2-phenylquinolin-4-yloxy)-1,14-dioxo-13-(2-oxo-2-(piperidin-1-yl)ethyl) octadecahydropyrrolo [1,2-a][1,4] diazacyclohexadecine-3-carboxamide] as the compound, how does the EC50 read?
**A.** Its EC50 is 1000 to 10000 nM.

same assay, conditions: Hepatitis C virus, 72 h; HCV replicon in Huh-7 cells, three days incubation

**Q.** Which EC50 does the source give for `CCOC(=O)C12CC1/C=C\CCCCC[C@@H](CC(=O)N1CCCCC1)C(=O)N1C[C@H](Oc3cc(-c4ccccc4)nc4cc(OC)ccc34)C[C@H]1C(=O)N2` (stereo partly drawn) [Compound 42, (2R,6S,16aS,Z)-ethyl 2-(7-methoxy-2-phenylquinolin-4-yloxy)-5,16-dioxo-6-(2-oxo-2-(piperidin-1-yl)ethyl)-1,2,3,5,6,7,8,9,10,11, 13a,14,14a,15,16,16a-hexadecahydrocyclopropa [e]pyrrolo[1,2-a][1,4] diazacyclopentadecine-14a-carboxylate] here?
**A.** Its EC50 is 1000 to 10000 nM.

**Q.** Which EC50 does the source give for `COc1ccc2c(O[C@@H]3C[C@H]4C(=O)NC5(C(=O)O)CC5/C=C\CCCCC[C@@H](CC(=O)N5CCCCC5)C(=O)N4C3)cc(-c3ccccc3)nc2c1` (stereo partly drawn) [Compound 43, (2R,6S,16aS,Z)-2-(7-methoxy-2-phenylquinolin-4-yloxy)-5,16-dioxo-6-(2-oxo-2-(piperidin-1-yl)ethyl)-1,2,3,5,6,7,8,9,10,11, 13a,14,14a,15,16,16a-hexadecahydrocyclopropa [e]pyrrolo[1,2-a][1,4] diazacyclopentadecine-14a-carboxylic acid] here?
**A.** Its EC50 is 1000 to 10000 nM.

**Q.** For `COc1ccc2c(O[C@@H]3C[C@H]4C(=O)N[C@]5(C(=O)O)C[C@H]5/C=C\CCCCC[C@H](CC(=O)N5CCCCC5)C(=O)N4C3)cc(-c3ccccc3)nc2c1` [Compound 44, (2R,6R,13aS,14aR, 16aS,Z)-2-(7-methoxy-2-phenylquinolin-4-yloxy)-5,16-dioxo-6-(2-oxo-2-(piperidin-1-yl)ethyl)-1,2,3,5,6,7,8,9,10,11, 13a,14,14a,15,16,16a-hexadecahydrocyclopropa [e]pyrrolo[1,2-a][1,4] diazacyclopentadecine-14a-carboxylic acid], which EC50 is on record?
**A.** Its EC50 is > 10000 nM.

**Q.** How did the EC50 turn out when `CCOC(=O)[C@@]12C[C@H]1/C=C\CCCCC[C@H](CC(=O)N1CCCCC1)C(=O)N1C[C@H](Oc3cc(-c4ccccc4)nc4cc(OC)ccc34)C[C@H]1C(=O)N2` [Compound 45, (2R,6R,13aS,14aR, 16aS,Z)-ethyl 2-(7-methoxy-2-phenylquinolin-4-yloxy)-5,16-dioxo-6-(2-oxo-2-(piperidin-1-yl)ethyl)-1,2,3,5,6,7,8,9,10,11, 13a,14,14a,15,16,16a-hexadecahydrocyclopropa [e]pyrrolo[1,2-a][1,4] diazacyclopentadecine-14a-carboxylate] was run?
**A.** Its EC50 is > 10000 nM.

**Q.** For `CCOC(=O)[C@@]12C[C@H]1/C=C\CCCCC[C@H](CC(=O)OC(C)(C)C)C(=O)N1C[C@H](Oc3cc(-c4ccccc4)nc4cc(OC)ccc34)C[C@H]1C(=O)N2` [Compound 46, (2R,6R,13aS,14aR, 16aS,Z)-ethyl 6-(2-tert-butoxy-2-oxoethyl)-2-(7-methoxy-2-phenylquinolin-4-yloxy)-5,16-dioxo-1,2,3,5,6,7,8,9,10,11, 13a,14,14a,15,16,16a-hexadecahydrocyclopropa [e]pyrrolo[1,2-a][1,4] diazacyclopentadecine-14a-carboxylate], which EC50 is on record?
**A.** Its EC50 is > 10000 nM.

**Q.** Which EC50 does the source give for `CCOC(=O)[C@]12C[C@@H]1/C=C\CCCCC[C@H](CC(=O)OC(C)(C)C)C(=O)N1C[C@H](Oc3cc(-c4ccccc4)nc4cc(OC)ccc34)C[C@H]1C(=O)N2` [Compound 47, (2R,6R,13aR,14aS, 16aS,Z)-ethyl 6-(2-tert-butoxy-2-oxoethyl)-2-(7-methoxy-2-phenylquinolin-4-yloxy)-5,16-dioxo-1,2,3,5,6,7,8,9,10,11, 13a,14,14a,15,16,16a-hexadecahydrocyclopropa [e]pyrrolo[1,2-a][1,4] diazacyclopentadecine-14a-carboxylate] here?
**A.** The EC50 was < 1000 nM.

**Q.** With `COc1ccc2c(O[C@@H]3C[C@H]4C(=O)N[C@]5(C(=O)NS(=O)(=O)C6CC6)C[C@H]5/C=C\CCCCC[C@H](CC(=O)N5CCCCC5)C(=O)N4C3)cc(-c3ccccc3)nc2c1` [Compound 48, (2R,6R,13aS, 14aR,16aS,Z)-N-(cyclopropylsulfonyl)-2-(7-methoxy-2-phenylquinolin-4-yloxy)-5,16-dioxo-6-(2-oxo-2-(piperidin-1-yl)ethyl)-1,2,3,5,6,7,8,9,10,11, 13a,14,14a,15,16,16a-hexadecahydrocyclopropa [e]pyrrolo[1,2-a][1,4] diazacyclopentadecine-14a-carboxamide] as the compound, how does the EC50 read?
**A.** The EC50 was 1000 to 10000 nM.

**Q.** Which EC50 does the source give for `COc1ccc2c(O[C@@H]3C[C@H]4C(=O)N[C@@]5(C(=O)NS(=O)(=O)C6CC6)C[C@@H]5/C=C\CCCCC[C@H](CC(=O)N5CCCCC5)C(=O)N4C3)cc(-c3ccccc3)nc2c1` [Compound 49, (2R,6R,13aR, 14aS,16aS,Z)-N-(cyclopropylsulfonyl)-2-(7-methoxy-2-phenylquinolin-4-yloxy)-5,16-dioxo-6-(2-oxo-2-(piperidin-1-yl)ethyl)-1,2,3,5,6,7,8,9,10,11, 13a,14,14a,15,16,16a-hexadecahydrocyclopropa [e]pyrrolo[1,2-a][1,4] diazacyclopentadecine-14a-carboxamide] here?
**A.** The EC50 was 1000 to 10000 nM.

**Q.** Which EC50 does the source give for `O=C1NC2(C(=O)NS(=O)(=O)C3CC3)CC2/C=C\CCCCC[C@H](CC(=O)N2CCCCC2)C(=O)N2C[C@H](OC(=O)N3Cc4cccc(F)c4C3)C[C@@H]12` (stereo partly drawn) [Compound 50, (2R,6R,16aS,Z)-14a-(cyclopropylsulfonyl-carbamoyl)-5,16-dioxo-6-(2-oxo-2-(piperidin-1-yl)ethyl)-1,2,3,5,6,7,8,9,10,11, 13a,14,14a,15,16,16a-hexadecahydrocyclopropa [e]pyrrolo[1,2-a][1,4] diazacyclopentadecin-2-yl 4-fluoroisoindoline-2-carboxylate] here?
**A.** Its EC50 is < 1000 nM.

**Q.** Which EC50 does the source give for `COc1ccc2c(O[C@@H]3C[C@H]4C(=O)N[C@H](C(=O)NS(=O)(=O)C5CC5)[C@@H](C)CCCCCCC[C@H](CC(=O)N5CCCCC5)C(=O)N4C3)cc(-c3ccccc3)nc2c1` [Compound 53, (3S,4S,12R,16R,17aS)-N-(cyclopropylsulfonyl)-16-(7-methoxy-2-phenylquinolin-4-yloxy)-4-methyl-1,13-dioxo-12-(2-oxo-2-(piperidin-1-yl)ethyl)hexadecahydro-1H-pyrrolo[1,2-a][1,4] diazacyclopentadecine-3-carboxamide] here?
**A.** Its EC50 is 1000 to 10000 nM.

**Q.** How did the EC50 turn out when `COc1ccc2c(O[C@@H]3C[C@H]4C(=O)N[C@@](C)(C(=O)NS(=O)(=O)C5CC5)CCCCCCCC[C@H](CC(=O)N5CCCCC5)C(=O)N4C3)cc(-c3ccccc3)nc2c1` [Compound 54, (3R,12R,16R,17aS)-N-(cyclopropylsulfonyl)-16-(7-methoxy-2-phenylquinolin-4-yloxy)-3-methyl-1,13-dioxo-12-(2-oxo-2-(piperidin-1-yl)ethyl)hexadecahydro-1H-pyrrolo[1,2-a][1,4] diazacyclopentadecine-3-carboxamide] was run?
**A.** The EC50 was < 1000 nM.
